Test results as given in patent US9675627B2, “Dosing regimens for treating and/or preventing cerebral amyloidoses” (Amicus Therapeutics, Inc., priority 2014, dated 2017).

Experiments:
[1] = Single dose pharmacokinetic study (oral gavage), plasma and brain LC-MS/MS; assay type: in vivo, C57BL/J6 mice
Protocol: 5-week-old C57BL/J6 mice (n=5 mice/group, Taconic Farms, Germantown, N.Y.) were administered vehicle (water) or AdDNJ (30, 100 or 300 mg/kg) via oral gavage every day for 14 days. On day 15 mice were euthanized and brain/plasma collected for analysis. For single dose PK studies, 5-week-old C57BL/J6 mice (n=5 mice/group, Taconic Farms, Germantown, N.Y.) received a single 100 mg/kg dose (oral gavage) of AdDNJ and groups euthanized at 0.5, 1, 2, 4, 8, 16, 24 and 48 hours post dose for brain and plasma analysis. Whole brain tissue (10-15 mg) was homogenized in 1 mL of pH 5 lysis buffer for measuring beta-hexosaminidase activity as described above. AdDNJ levels were measured in plasma and brain samples using LC-MS/MS.

[2] = target: T1, β-hex; assay: β-hex enzymatic inhibition in fibroblast lysate (4-MU substrate); assay type: biochemical, human
T1 construct: other: pH 5; other: pH 7
From the text: (§1) Enzymatic activity measurements were done in duplicate.

[3] = tested on: Aβ; assay: Aβ assay (ELISA of monomeric Aβ, dot blot of oligomers) in brain; assay type: in vivo, Dutch APP^E693Q transgenic mice; conditions: 3-month treatment, any dose tested
Protocol: The generation and characterization of Dutch APPE693Q mice transgenic mice is described in Gandy, S., et al. Days to criterion as an indicator of toxicity associated with human Alzheimer amyloid-beta oligomers. Annals of neurology 68, 220-230 (2010). 3-month-old male Dutch APP^E693Q mice transgenic mice were orally gavaged 5 days/week with either vehicle (water) (n=15) or 3, 10, 30 or 100 mg/kg AdDNJ for 3 months (n=13). All animal studies were approved and conducted in accordance with the Institutional Animal Care and Usage Committee. Mice were kept in a pathogen-free environment, on a 12-hour light/dark cycle and given ad libitum access to food and water. At 6 month of age treatment groups, and a 3-month-old untreated baseline group (n=15), were cognitively assessed in the NOR, EPM and FC tests. 48 hours following the final dose mice were perfused with ice-cold 1×PBS. The brain was removed and dissected into two hemispheres. One half was snap-frozen on dry ice and stored at −80° C. for biochemistry; the other half was post-fixed in 4% paraformaldehyde then sagittally sectioned on a vibratome into 30 μm sections and stored at 4° C. in storage buffer until histological analyses.
Right hemibrains were processed via differential detergent solubilizationin accordance with Kawarabayashi, T., et al. Age-dependent changes in brain, CSF, and plasma amyloid (beta) protein in the Tg2576 transgenic mouse model of Alzheimer's disease. J Neurosci 21, 372-381 (2001). For analysis of native oligomeric Aβ protein structure, 2-4 μL native protein samples from TBS-soluble were spotted onto activated/pre-wetted PVDF membrane (0.22 μm; Millipore) and allowed to dry. Following protein spotting, membranes were blocked for 1 h at room temperature in 5% w/v non-fat milk (Santa Cruz) in TBS containing 0.1% v/v Tween-20 (Fisher Scientific; TBS-T). Membranes were then incubated in the indicated primary antibody (in 5% milk/TBS-T) overnight at 4 C, washed 4× in TBS-T, incubated in species-specific HRP-conjugated secondary antibody (in 5% milk/TBS-T) for 1 h at room temperature, and then washed 4× in TBS-T. Membranes were subsequently developed with ECL Western blotting substrate (Pierce) using the Fujifilm LAS-3000 developer. Membranes were then washed 1× in TBS-T and stripped in low pH stripping buffer [25 mM Glycine HCl, pH 2.0 and 1% w/v SDS] with vigorous shaking to remove primary and secondary antibody, washed 3× in TBS-T, and blocked for 1 h (in 5% milk/TBS-T) at room temperature before probing with the next primary antibody. Integrated density of immunoreactive spots was measured using MultiGauge Software (FujiFilm) and normalized to % control (vehicle). Generation, purification, and characterization of rabbit pAβ A11 (anti-prefibrillar oligomers, 0.5 μg/ml), rabbit pAβ OC (anti-fibrillar oligomers and fibrils; 0.25 μg/ml) and mouse mAβ Nu-4 (anti-oligomers; 1 μg/ml) have been described previously (Tomic, J. L., Pensalfini, A., Head, E. & Glabe, C. G. Soluble fibrillar oligomer levels are elevated in Alzheimer's disease brain and correlate with cognitive dysfunction. Neurobiology of disease 35, 352-358 (2009); Lambert, M. P., et al. Monoclonal antibodies that target pathological assemblies of Abeta. Journal of neurochemistry 100, 23-35 (2007)). […] To quantify monomeric Aβ levels, human/rat Aβ 1-40/1-42 ELISA kits (Wako) were used according to the manufacturer's instructions. […]

[4] = target: T2, β-galactosidase (β-Gal) (Homo sapiens, UniProt P16278); assay: Selectivity: beta-galactosidase activity in fibroblast lysate; assay type: biochemical; conditions: 10 μM, the highest concentration tested
T2 construct: wild-type fibroblast (CRL2076) pellets (˜2.5e6 cells/pellet) were lysed; host or cells: wild-type fibroblasts CRL2076, lysate
T2 sequence (P16278 29-677): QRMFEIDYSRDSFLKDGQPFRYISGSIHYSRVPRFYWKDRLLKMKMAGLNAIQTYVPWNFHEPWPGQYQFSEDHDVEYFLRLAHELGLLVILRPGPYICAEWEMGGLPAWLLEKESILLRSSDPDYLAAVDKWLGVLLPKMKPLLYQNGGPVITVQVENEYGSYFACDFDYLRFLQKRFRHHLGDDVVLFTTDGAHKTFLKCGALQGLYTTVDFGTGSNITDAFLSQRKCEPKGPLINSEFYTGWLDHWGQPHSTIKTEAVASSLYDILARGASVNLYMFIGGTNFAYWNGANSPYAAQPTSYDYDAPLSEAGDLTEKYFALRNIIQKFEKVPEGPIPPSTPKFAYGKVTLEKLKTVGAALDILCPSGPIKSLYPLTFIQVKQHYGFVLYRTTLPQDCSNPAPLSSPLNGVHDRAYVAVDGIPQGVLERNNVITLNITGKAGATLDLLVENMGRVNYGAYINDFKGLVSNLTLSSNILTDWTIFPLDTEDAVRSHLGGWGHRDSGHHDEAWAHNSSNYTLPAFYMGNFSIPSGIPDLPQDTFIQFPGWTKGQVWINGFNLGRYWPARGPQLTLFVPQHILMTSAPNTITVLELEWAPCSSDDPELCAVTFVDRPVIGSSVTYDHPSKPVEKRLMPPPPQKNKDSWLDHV
From the text: as §1

SMILES: CC(=O)NC1CNC(CO)[C@@H](O)C1O (stereo partly drawn) [AdDNJ, 2-acetamido-1,2-dideoxynojirimycin]
- bioavailability ([1]; qualitative statement): good bioavailability
- AdDNJ level reached in brain ([1]; single 100 mg/kg dose): > 342 nM
- blood brain barrier penetration ([1]; single 100 mg/kg oral gavage): crossed the BBB
- time for brain level to drop below Ki for β-hex at pH 5 (253 nM) ([1]; single 100 mg/kg oral gavage): ≤ 16 hours
- Ki ([2]; pH 5): 253 nM
- Ki ([2]; pH 7): 342 nM
- Aβ40 level [3]: no change
- Aβ42/40 ratio [3]: no change
- Aβ42 level [3]: no change
- Aβ oligomer levels [3]: no change
- prefibrillar Aβ [3]: no change
- inhibition of β-galactosidase (β-Gal) [4]: did not inhibit
